Reference: patent US20200277246A1, “TREATMENT METHOD, COMPOUNDS, AND METHOD OF INCREASING TRPV2 ACTIVITY” (THE FEINSTEIN INSTITUTE FOR MEDICAL RESEARCH, priority 2015, published 2020)
“And” between values parts separate entries of the source, which are not always exact repeats. Equal values may be shown once.

Tests used:
FLS from RA patients = assay: Matrigel transwell invasion assay, RA FLS; type: cell-based, human
Description: Human synovial tissues were obtained from RA patients undergoing elective orthopedic surgery. All patients met the American College of Rheumatology criteria for RA (Arnett et al, “The American Rheumatism Association 1987 Revised Criteria for the Classification of Rheumatoid Arthritis,” Arthritis Rheum. 31 (3):315-324 (1988), which is hereby incorporated by reference in its entirety). Informed consent was obtained from all participating subjects under an Institutional Review Board-approved protocol through the Feinstein Institute's Tissue Donation Program.
The in vitro invasiveness of FLS was assayed in a transwell system using Matrigel-coated inserts (BD Biosciences, Franklin Lakes, N.J.), as previously described (Tolboom et al., “Invasiveness of Fibroblast-Like Synoviocytes is an Individual Patient Characteristic Associated with the Rate of Joint Destruction in Patients with Rheumatoid Arthritis,” Arthritis Rheum. 52 (7):1999-2002 (2005); Laragione et al., “The Arthritis Severity Locus Cia5d is a Novel Genetic Regulator of the Invasive Properties of Synovial Fibroblasts,” Arthritis Rheum. 58 (8):2296-2306 (2008), which are hereby incorporated by reference in their entirety). […] The opposite side of the insert was stained with Crystal Violet (Sigma) and the total number of cells that invaded through Matrigel counted at 100× magnification. […]

MMP-2 = assay: IL-1β-induced MMP-2 expression (qPCR) in RA FLS; type: cell-based, human; details: IL-1β 10 ng/ml 48 hours, 10 μM, n=6 RA
Description: (§1) The qPCR conditions used have been previously described (Laragione et al., “Cia5d Regulates a New Fibroblast-Like Synoviocyte Invasion-Associated Gene Expression Signature,” Arthritis Res. Ther. 10 (4):R92 (2008), which is hereby incorporated by reference in its entirety). Briefly, total RNA (200 ng) from each sample was reverse transcribed using Superscript III (Invitrogen). MMP-2 (forward-[…] (SEQ ID NO: 1); reverse-GGTATCCATCGCCATGCT (SEQ ID NO: 2) and MMP-3 (forward-CCAGGTGTGGAGTTCCTGA (SEQ ID NO: 3); reverse-[…] (SEQ ID NO: 4)) primers were designed based on the Universal ProbeLibrary (Roche, Indianapolis, Ind.). Reactions were prepared with Absolute Blue qPCR Mix (Thermo Fisher, Waltham, Mass.), and run in duplicate on a LightCycler 480 thermocycler (Roche) using Relative Quantitative Software (Roche). Ct (threshold cycle) values were adjusted for GAPDH in each sample (ΔCt). Fold differences were calculated with the 2^−ΔΔCt method (Livak et al., “Analysis of Relative Gene Expression Data Using Real-Time Quantitative PCR and the 2(-Delta Delta C(T)) Method,” Methods 25 (4):402-408 (2001), which is hereby incorporated by reference in its entirety).

MMP-3 = assay: IL-1β-induced MMP-3 expression (qPCR) in RA FLS; type: cell-based, human; details: IL-1β 10 ng/ml 48 hours, 10 μM, n=6 RA
Description: as §1

glioblastoma cell line = assay: Cancer cell invasion, glioblastoma; type: cell-based
Trpv2 [1] = details: cited from earlier work
cannabinoid receptors = details: cited from earlier work
Trpv2 [2] = target: T1, Trpv2 (Rattus norvegicus, UniProt Q9WUD2); assay: Single cell patch clamp of DA FLS; type: cell-based; set-up: endogenous in cells; host or cells: FLS from DA rats with pristane-induced arthritis; details: perfusion with 30 μM
T1 sequence (Q9WUD2 1-761): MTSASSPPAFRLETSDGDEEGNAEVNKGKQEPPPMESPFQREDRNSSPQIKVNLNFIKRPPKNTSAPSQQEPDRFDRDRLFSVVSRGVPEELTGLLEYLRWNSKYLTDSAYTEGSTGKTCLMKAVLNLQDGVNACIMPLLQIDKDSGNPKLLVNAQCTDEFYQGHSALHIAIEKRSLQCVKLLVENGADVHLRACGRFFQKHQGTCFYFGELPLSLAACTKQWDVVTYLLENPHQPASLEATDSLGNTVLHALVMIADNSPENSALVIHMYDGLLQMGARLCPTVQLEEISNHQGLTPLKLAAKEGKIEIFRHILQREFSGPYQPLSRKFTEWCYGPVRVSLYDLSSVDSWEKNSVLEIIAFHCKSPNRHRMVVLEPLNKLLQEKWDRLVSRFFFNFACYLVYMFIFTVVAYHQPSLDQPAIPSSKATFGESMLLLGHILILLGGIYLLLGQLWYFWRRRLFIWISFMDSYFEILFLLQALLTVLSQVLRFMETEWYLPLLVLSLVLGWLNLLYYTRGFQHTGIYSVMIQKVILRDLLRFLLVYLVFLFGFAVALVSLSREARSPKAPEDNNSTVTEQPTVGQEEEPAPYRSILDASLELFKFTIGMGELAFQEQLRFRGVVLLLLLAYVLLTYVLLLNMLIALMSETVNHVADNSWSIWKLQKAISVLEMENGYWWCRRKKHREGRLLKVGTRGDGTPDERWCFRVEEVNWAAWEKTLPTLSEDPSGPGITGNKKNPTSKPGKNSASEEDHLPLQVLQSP
Description: FLS obtained from DA rats with PIA were plated in culture medium onto glass coverslips and allowed to adhere at 37° C. Recordings were performed in the whole-cell configuration of the patch-clamp technique at room temperature using an EPC10-USB amplifier (HEKA instruments, Bellmore, N.Y.). […] The bath solution contained 132 mM NaCl, 5.4 mM KCl, 1.8 mM CaCl2, 0.8 mM MgCl2, 10 mM HEPES, and 10 mM glucose, at pH 7.4. O1821-activated currents were elicited with a 600 ms ramp from −100 to +100 mV from a holding potential of −107 mV. Addition of O1821 was accomplished by complete bath exchange.

## C=C(C)[C@@H]1CCC(C)=C[C@H]1c1c(O)cc(C)cc1O [Compound O1821]
FLS from RA patients; 20 μM
  Reduction of RA FLS invasion: 90%
FLS from RA patients; 50 μM
  Reduction of RA FLS invasion: 99.4%
MMP-2
  Decrease of IL-1β-induced MMP-2 expression: 45.6% and 50%
MMP-3
  Decrease of IL-1β-induced MMP-3 expression: 92% and 90%
Glioblastoma cell line
  Cell invasion: significantly reduce cell invasion
Trpv2 [1]
  Stimulation of Trpv2: stimulates
Cannabinoid receptors
  Stimulation of cannabinoid receptors: does not stimulate
Trpv2 [2]
  Trpv2 channel current: induced channel opening
